Measured values published in US7273848B2, “Apolipoprotein A-I agonists and their use to treat dyslipidemic disorders” (priority 1997, dated 2007).

What was measured:
[1] = Lipid binding by fluorescence spectroscopy; conditions: Ri 0 (buffer, no lipids), 2 μM
Experimental: The lipid binding properties of the peptides synthesized in Section 6, supra, were tested by fluorescence measurements with labeled peptides, in the present case Tryptophane (Trp or W) or Naphtylalanine (Nal). The fluorescence spectra were recorded on a Fluoromax from Spex (Jobin-Yvon) equipped with a Xenon lamp of 150 W, two monochromators (excitation and emission), a photomultiplier R-928 for detection sensitive in the red up to 850 nm and a thermoelectric magnetic stirred cell holder. Quartz Suprasil cuvettes were used for measurements in the micromolar concentration range. A device of variable slits (from 0.4 to 5 nm) allows modulation of the incident and emitted intensities according to the concentration of peptide used. The reported values are in general the average of between 2 to 4 spectra. The peptide concentration is determined by absorption spectrometry on a Philips PU 8800 using the absorption band of the Trp (ε280 nm=5,550 M^−1 cm^−1 in Tris buffer) or the Nal (ε224 nm =92,770 M^−1 cm^−1 in methanol)
Fluorescence spectra of the peptides were recorded between 290 nm and 450 nm in Tris-HCl buffer (20 mM, pH=7.5), in the presence and absence of lipidic vesicles. The small unilamellar vesicles were formed after rehydration in buffer of the lyophilized phospholipids, dispersion and tip sonification under a N2 stream. The lipids used were either Egg PC/Chol. (20:1) or POPC/Chol. (20:1). The spectra were recorded at a peptide concentration of 2 μM and at a temperature of 37° C. The fluorescence reference standard in the case of Trp was N-acetyltryptophanylamide (NATA).
Lipid binding studies were done through progressive lipidic vesicle addition to the peptide in solution at 2 μM (slits: 5 nm in excitation and 1.5 nm in emission). Dilution effects were taken into account for the fluorescence intensity determination. The lipid concentrations were varied from 10 to 600 μM and the molar ratio of lipid to peptide (Ri) was varied from 5 to 300. The wavelength of excitation was set at 280 nm for both Trp and Nal.
The data were directly recorded and treated by an IBM-PC linked to the spectrofluorimeter through the DM3000F software from Spex. The spectra were corrected by substraction of the solvent contribution and by application of a coefficient given by the constructor taking into account the variation of the photomultiplier response versus the wavelength.
The fluorescence spectra of the peptides were characterized by the wavelength at their maximum of fluorescence emission and by their quantum yield compared to NATA in the case of peptides labeled with a tryptophane. The process of binding to lipids was analyzed by calculating the shift of the wavelength at the maximum of fluorescence emission, (λmax), and the variation of the relative fluorescence intensity of emission versus the lipid concentration. The relative fluorescence intensity is defined as the following ratio: (I-I0)λmax/I0λmax. I and I0 are both measured at the (λmax) corresponding to the initial free state of the peptide, i.e., without lipids. I is the intensity at a defined lipid to peptide ratio and I0 is the same parameter measured in absence of lipids. The absence of these variations is relevant of the absence of interactions of the peptides with the lipids.

HDL cholesterol = HDL cholesterol in rabbits after injection of phospholipid/peptide complex; assay type: in vivo, rabbit; conditions: 10 mg/kg i.v. as phospholipid complex
Experimental: Small discoidal particles consisting of phospholipid (DPPC) and peptide 146 (SEQ ID NO:146) were prepared following the cholate dialysis method. The phospholipid was dissolved in chloroform and dried under a stream of nitrogen. The peptide was dissolved in buffer (saline) at a concentration of 1-2 mg/ml. The lipid film was redissolved in buffer containing cholate (43° C.) and the peptide solution was added at a 3-1 phospholipid/peptide ratio. The mixture was incubated overnight at 43° C. and then dialyzed at 43° C. (24 hr.), room temperature (24 hr.) and 4° C. (24 hr.), with three changes of buffer (large volumes) at temperature point. The complexes were filter sterilized (0.22μ) for injection and storage at 4° C.
Male New Zealand White rabbits (2.5-3 kg) were injected intravenously with a dose of phospholipid/peptide complex (8 mg/kg bodyweight peptide 146 (SEQ ID NO:146) or 10 mg/kg bodyweight ApoA-I, expressed as peptide or protein content) in a single bolus injection not exceeding 10-15 ml. The animals were slightly sedated before the manipulations. Blood samples (collected on EDTA) were taken before and 5, 15, 30, 60, 240 and 1440 minutes after injection. The hematocrit (Hct) was determined for each sample. Samples were aliquoted and stored at −20° C. before analysis.
Plasma Lipids. The total plasma cholesterol, plasma triglycerides and plasma phospholipids were determined enzymatically using commercially available assays according to the manufacturer's protocols (Boehringer Mannheim, Mannheim, Germany and Biomerieux, 69280, Marcy-l'étoile, France).
Lipoprotein Profiles. The plasma lipoprotein profiles of the fractions obtained after the separation of the plasma into its lipoprotein fractions were determined by spinning in a sucrose density gradient. The fractions were collected and in each individual fraction the phospholipid and cholesterol content was measured enzymatically.

Compound	λmax (nm) [1] [nm]	Increase in HDL Cholesterol (%) (HDL cholesterol; 5 min.)	Increase in HDL Cholesterol (%) (HDL cholesterol; 15 min.)	Increase in HDL Cholesterol (%) (HDL cholesterol; 60 min.)	Increase in HDL Cholesterol (%) (HDL cholesterol; 240 min.)
CC(=O)N[C@@H](Cc1c[nH]c2ccccc12)C(N)=O [NATA, N-acetyltryptophanylamide, reference compound]	350	–	–	–	–
Native ApoA-I: ApoA-I (isolated from human plasma), used as positive control; injected as phospholipid complex in rabbits	–	19.3	16	15.8	−24.1
